Laboratory results from publication PMC3750913 (BMC Microbiology, 2013).
Like-named read-outs stand apart in the source and are kept apart here.

Assays:
[1] = XTT cytotoxicity assay; format: cell-based
Procedure: Cells (1 × 10^4 per well of 96-well plate) were treated with the test compounds for 3 days. Treatment effects on cell viability (%) and the 50% cytotoxic concentration (CC50) values of the test compounds were determined based on the XTT (2,3-bis[2-methoxy-4-nitro-5-sulfophenyl]-5-phenylamino)-carbonyl]-2H-tetrazolium hydroxide) assay as previously reported.

[2] = test system: HCV; format: cell-based, hepatitis C virus; conditions: Huh-7.5 cells
[3] = test system: ADV-5; assay: Dose-response antiviral assay (plaque assay); format: cell-based, human adenovirus type-5; conditions: Human adenovirus sp.; ADV-5 in A549 cells, co-treatment with viral inoculum; read-out: Antiviral effect EC50
[4] = test system: HCV; assay: Viral inactivation assay; format: cell-based
[5] = test system: DENV-2; assay: Viral inactivation assay; format: cell-based, dengue virus type 2; conditions: Dengue virus
[6] = test system: MV; assay: Viral inactivation assay; format: cell-based, measles virus; conditions: for block of infection after pre-incubation of free virus with compound: MV, CHLA 90 μM, PUG 50 μM, Figure 3
[7] = test system: DENV-2; assay: Viral attachment assay, method 1 (host cell infection); format: cell-based, dengue virus type 2; conditions: DENV-2, method 1, 4°C; Figure 4
[8] = test system: RSV; assay: as above; format: cell-based, respiratory syncytial virus; conditions: for inhibition of virus attachment: RSV, method 1, 4°C, Figure 4
[9] = test system: HCV; assay: Viral attachment assay, method 2 (virus-specific cellular ELISA); format: cell-based, hepatitis C virus; conditions: HCV MOI 0.1, ELISA, 4°C; highest inhibitory concentration of the compounds
[10] = test system: DENV-2; assay: as above; format: cell-based, dengue virus type 2; conditions: DENV-2 MOI 5, ELISA, 4°C; highest inhibitory concentration of the compounds
[11] = test system: MV; assay: as above; format: cell-based, measles virus; conditions: MV MOI 1, ELISA, 4°C; highest inhibitory concentration of the compounds
[12] = test system: HCMV; assay: Viral penetration assay; format: cell-based, human cytomegalovirus; conditions: for protection of the host cell from infection during virus penetration: HCMV, shift 4°C to 37°C, Figure 4
[13] = test system: HCMV; assay: Analysis of drug effects post viral entry; format: cell-based, human cytomegalovirus; conditions: for protection, treatment post-infection: HCMV, Figure 6
[14] = test system: RSV; assay: Analysis of drug effects post viral entry; format: cell-based, respiratory syncytial virus; conditions: for protection, treatment post-infection: RSV, Figure 6
[15] = test system: HCMV; assay: Viral cell-to-cell spread assay; format: cell-based, human cytomegalovirus; conditions: for effect on viral plaque size (cell-to-cell spread): HCMV, Figure 7
[16] = test system: HCV; assay: Viral cell-to-cell spread assay; format: cell-based, hepatitis C virus; conditions: for effect on viral plaque size (cell-to-cell spread): HCV, Figure 7; for inhibition at 50 µM: Hepatitis C virus, Huh7.5, read-out: Window of antiviral effects: Cell-to-cell spread, inhibitory effect relative to DMSO control
Procedure: (A) Schematic of the experiment (left) with the virus concentration (PFU/well) and step-wise incubation periods (i, ii, iii) indicated for each virus in the table on the right. Virus infections were established (i) in the different cell types by direct inoculation (HCMV, DENV-2, MV, and RSV) or electroporation of viral RNA (HCV; *), and the cell monolayers were washed with citrate buffer or PBS before being covered with an overlay medium that prevents secondary infection. Initial virus plaques were allowed to form in the subsequent infections (ii), and then the test compounds were added to the overlay medium for an additional time of incubation (iii) before analysis of viral plaque size by immune fluorescence microscopy. Five random virus-positive plaques at the endpoint of the experiment were evaluated for each treatment group of viruses, and the data was plotted as “fold change of plaque area” against the size of the initial viral plaques formed prior to test compound treatment. Analyses for (B) HCMV, (C) HCV, (D) DENV-2, (E) MV, and (F) RSV are indicated in each additional panel. The S29 cell line and the FIP inhibitor were included as controls for HCV and MV, respectively. Results shown are means ± SEM from three independent experiments and representative micrographs of the evaluated plaques are provided in Additional file 1 Figure S1, Additional file 2 Figure S2, Additional file 3 Figure S3, Additional file 4 Figure S4 and Additional file 5 Figure S5. See text for details.
The examination of HCV spread is based on previously described protocol with some modifications. Huh-7.5 cells were electroporated with HCV Jc1FLAG2(p7-nsGluc2A) RNA (10 μg) as described above to establish random productive infections in the cell population, and then mixed with naïve cells at a ratio of 1:1 before seeding in 12-well plates. […] Medium was changed 24 h post-electroporation with an overlay medium containing the test drugs or control and 0.5% methylcellulose, and the plates were further incubated for 5 days before analysis of HCV-positive foci through immunostaining.
For immunofluorescence analysis of viral plaque size due to spread, the overlay media were removed and the wells were fixed with ice-cold methanol before blocking with 3% BSA. Samples were then treated at 37°C for 1 h with the respective mouse monoclonal primary antibodies diluted in PBS containing 3% BSA: anti-HCMV gB antibody (1:1,000), anti-NS5A 9E10 antibody for HCV (1:25,000), anti-flavivirus group antibody (1:400) for DENV-2, and anti-RSV fusion protein antibody (1:1,000). After incubation, the wells were washed with PBS three times before applying Alexa Fluor 488 goat anti-mouse IgG (H + L) antibody (Invitrogen), diluted at 1:1,000 (HCMV and RSV) or 1:400 (DENV-2 and HCV) in PBS containing 3% BSA. Following incubation at 37°C for 1 h, the samples were washed with PBS three times prior to visualization by fluorescence microscopy. The fluorescence expression of MV-EGFP could be readily detected without addition of antibodies. Photomicrographs were taken at × 100 magnification (Leica Microsystems; Wetzlar, Germany) and viral plaque sizes were then analyzed with MetaMorph software (Molecular Devices; Sunnyvale, CA, USA). In the case of HCV, cellular nuclei were stained with Hoechst dye (Sigma) prior to visualization and the number of cells in the virus-positive foci was determined. For all virus tested, a total of five random virus-positive plaques were evaluated for each treatment group per independent experiment. Comparison was made between viral plaques stained prior to drug addition and those at the endpoint of the experiment, and the data were plotted as “fold change of plaque area”.

[17] = test system: DENV-2; assay: Viral cell-to-cell spread assay; format: cell-based, dengue virus type 2; conditions: for effect on viral plaque size (cell-to-cell spread): DENV-2, Figure 7; for inhibition at 25 µM: Dengue virus, DENV2, Vero, read-out: Window of antiviral effects: Cell-to-cell spread, inhibitory effect relative to DMSO control
[18] = cited from earlier work
[19] = Hepatitis C virus, Huh7.5, read-out: Window of antiviral effects: Free particle, inhibitory effect relative to DMSO control
[20] = DENV2, Vero, read-out: Window of antiviral effects: Free particle, inhibitory effect relative to DMSO control
[21] = DENV2, read-out: inhibition of infection after pre-incubation of free virus with compound
[22] = Measles morbillivirus, read-out: Window of antiviral effects: Free particle, inhibitory effect relative to DMSO control
[23] = human respiratory syncytial virus, HEp-2, read-out: Window of antiviral effects: Attachment Method 1, inhibitory effect relative to DMSO control
[24] = Human betaherpesvirus 5, HEL, read-out: Window of antiviral effects: Penetration, inhibitory effect relative to DMSO control
[25] = Human betaherpesvirus 5, HEL, read-out: Window of antiviral effects: Cell-to-cell spread, inhibitory effect relative to DMSO control

| Structure (SMILES) | SI (selectivity index, CC50/EC50) [2] | EC50 [3] [µM] | inhibition at 50 µM [4, 19] [%] | inhibition at 25 µM [5, 20] [%] | inhibition at 25 µM [5, 21] [%] | block of infection after pre-incubation of free virus with compound [6] | inhibition of virus attachment [7] | inhibition of virus attachment [8] | Window of antiviral effects: Attachment Method 2, inhibitory effect relative to DMSO control [9] | Window of antiviral effects: Attachment Method 2, inhibitory effect relative to DMSO control [10] | Window of antiviral effects: Attachment Method 2, inhibitory effect relative to DMSO control [11] | protection of the host cell from infection during virus penetration [12] | protection, treatment post-infection [13] | protection, treatment post-infection [14] [%] | effect on viral plaque size (cell-to-cell spread) [15] | effect on viral plaque size (cell-to-cell spread) [16] | inhibition at 50 µM [16] [%] | effect on viral plaque size (cell-to-cell spread) [17] | inhibition at 25 µM [17] [%] | other results |
| --- | --- | --- | --- | --- | --- | --- | --- | --- | --- | --- | --- | --- | --- | --- | --- | --- | --- | --- | --- | --- |
| O=C1O[C@H]2[C@@H]3OC(=O)c4cc(O)c(O)c(O)c4-c4c(O)c(O)c5oc(=O)c6c(c(O)c(O)c7oc(=O)c4c5c76)-c4c(cc(O)c(O)c4O)C(=O)OC[C@H]3OC(O)[C@@H]2OC(=O)c2cc(O)c(O)c(O)c2-c2c1cc(O)c(O)c2O (mixture of isomers) [PUG, punicalagin] | 13.31 | 197 ± 20.1 | > 75 | > 75 | ~100 | 60 – 80% | 90 – 100% | 90 – 100% | +++ (+++ > 75%) | +++ (+++ > 75%) | ++ (++ 50–75%) | 50 – 90% | 80 – 100% | < 25 | near initial size | near initial size | > 75 | unaffected and expanded further | < 25 | CC50 at 3 days ([1]; African green monkey, Vero cells, XTT assay, 3 days treatment, read-out: CC50): 151 ± 9.31 µM; CC50 at 3 days ([1]; Chinese hamster, CHO-SLAM cells, XTT assay, 3 days treatment, read-out: CC50): 284 ± 11.5 µM; CC50 at 3 days ([1]; human, A549 cells, 3 days treatment): 319 ± 4.99 µM; CC50 at 3 days ([1]; human, HEL cells, 3 days treatment): 299 ± 9.14 µM; CC50 at 3 days ([1]; human, HEp-2 cells, 3 days treatment): 265 ± 23.7 µM; CC50 at 3 days ([1]; human, Huh-7.5 cells, 3 days treatment): 223 ± 3.41 µM; inhibition at 50 µM ([4]; Hepatitis C virus, read-out: inhibition of infection after pre-incubation of free virus with compound): ~100%; inhibition at 50 µM [6, 22]: 50 to 75%; inhibition at 2 µM [8, 23]: > 75%; inhibition at 40 µM [12, 24]: 50 to 75%; inhibition at 40 µM ([13]; Human betaherpesvirus 5, HEL, read-out: Window of antiviral effects: Post-infection, inhibitory effect relative to DMSO control): > 75%; inhibition at 2 µM ([14]; human respiratory syncytial virus, HEp-2, read-out: Window of antiviral effects: Post-infection, inhibitory effect relative to DMSO control): < 25%; inhibition at 40 µM [15, 25]: > 75%; in vivo toxicity ([18]; In vivo toxicological and metabolic studies, ref [67], [68]): minimal toxicity |
| O=C(O)C[C@@H]1C(=O)O[C@H]2[C@@H]3OC(=O)c4cc(O)c(O)c(O)c4-c4c(cc(O)c(O)c4O)C(=O)OC[C@H]2O[C@@H](OC(=O)c2cc(O)c(O)c(O)c2)[C@@H]3OC(=O)c2cc(O)c(O)c3c2[C@H]1[C@H](O)C(=O)O3 [CHLA, chebulagic acid] | 19.54 | 198 ± 14.1 | > 75 | > 75 | ~100 | 60 – 80% | 90 – 100% | 90 – 100% | +++ (+++ > 75%) | +++ (+++ > 75%) | ++ (++ 50–75%) | 50 – 90% | 80 – 100% | < 25 | near initial size | near initial size | > 75 | unaffected and expanded further | < 25 | CC50 at 3 days ([1]; African green monkey): 160 ± 7.46 µM; CC50 at 3 days ([1]; Chinese hamster): 352 ± 4.54 µM; inhibition at 50 µM ([4]; Hepatitis C virus; read-out: inhibition of infection after pre-incubation of free virus with compound): ~100%; inhibition at 90 µM [6, 22]: 50 to 75%; inhibition at 1 µM [8, 23]: > 75%; inhibition at 60 µM [12, 24]: 50 to 75%; inhibition at 60 µM [15, 25]: > 75%; in vivo toxicity ([18]; in vivo): minimal toxicity |
